These results are taken from patent publication US7943340B2, “Fungal dipeptidyl peptidase IV (DPPIV) enzyme for reagent use” (priority 2003, dated 2011).

Where two headings read alike, the source gives them in different places.

The target of one experiment is ruLAP1 (Trichophyton rubrum, UniProt Q5QHG5). In kind it is biochemical. To be noted: Leu-MCA substrate. As for the experimental part:
(§1) Inhibitors and metallic cations were pre-incubated with the enzymes for 15 min at 37° C. Then, Leu-AMC at a 5 mM final concentration was added. After further incubation for 60 min, enzyme activity was measured as described above. The inhibitors and their concentrations tested purified LAPs were: 500 μM amastatin (Bachem), 40 μM benzamidine (Sigma), 500 μM bestatin (Bachem), 5 mM/l mM EDTA (Sigma). 100 μM E-64 (L-trans-epoxysuccinyl-leu-4-guanidinobutylamide) (Bachem), 100 μM leupeptin (Sigma), 5 mM/1 mM ortho-phenanthroline (Sigma), 500 μM p-chloromercuribenzoic acid (Sigma), 100 μM pepstatin A (Sigma), 40 μM PMSF (Sigma), 20 μM TLCK (Roche Diagnostics), and 20 μM TPCK (Roche Diagnostics).

A further experiment addresses fuLAP1 (Aspergillus fumigatus, UniProt Q5VJG6). In kind it is biochemical. Conditions: Leu-MCA substrate. As for the experimental part:
as §1

Experiment [1] concerns all the LAPs tested (ruLAP1, ruLAP2, fuLAP1, fuLAP2, pkLAP). In kind it is biochemical. To be noted: for effect of inhibitor on all the LAPs tested: Leu-AMC 5 mM, amastatin 500 μM, ortho-phenantroline 1 and 5 mM, others as. As for the experimental part:
as §1

A further experiment concerns the target ruLAP2 (Trichophyton rubrum, UniProt Q5QHG6). The format is biochemical. To be noted: for ruLAP2 hydrolytic activity, percentage of control without any cation / ruLAP2 hydrolytic activity, percentage of control without inhibitor: Leu-MCA substrate. How it is done:
as §1

A further experiment deals with fuLAP2. In kind it is biochemical, Aspergillus fumigatus. Conditions: for fuLAP2 hydrolytic activity, percentage of control without any cation / fuLAP2 hydrolytic activity, percentage of control without inhibitor: Leu-MCA substrate. As for the experimental part: as §1
In experiment [2] the target is T1, pkLAP (microsomal LAP from porcine kidney) (Sus scrofa, UniProt P15145).
T1 construct: purchased Sigma; host or cells: porcine kidney
T1 sequence (P15145 1-963): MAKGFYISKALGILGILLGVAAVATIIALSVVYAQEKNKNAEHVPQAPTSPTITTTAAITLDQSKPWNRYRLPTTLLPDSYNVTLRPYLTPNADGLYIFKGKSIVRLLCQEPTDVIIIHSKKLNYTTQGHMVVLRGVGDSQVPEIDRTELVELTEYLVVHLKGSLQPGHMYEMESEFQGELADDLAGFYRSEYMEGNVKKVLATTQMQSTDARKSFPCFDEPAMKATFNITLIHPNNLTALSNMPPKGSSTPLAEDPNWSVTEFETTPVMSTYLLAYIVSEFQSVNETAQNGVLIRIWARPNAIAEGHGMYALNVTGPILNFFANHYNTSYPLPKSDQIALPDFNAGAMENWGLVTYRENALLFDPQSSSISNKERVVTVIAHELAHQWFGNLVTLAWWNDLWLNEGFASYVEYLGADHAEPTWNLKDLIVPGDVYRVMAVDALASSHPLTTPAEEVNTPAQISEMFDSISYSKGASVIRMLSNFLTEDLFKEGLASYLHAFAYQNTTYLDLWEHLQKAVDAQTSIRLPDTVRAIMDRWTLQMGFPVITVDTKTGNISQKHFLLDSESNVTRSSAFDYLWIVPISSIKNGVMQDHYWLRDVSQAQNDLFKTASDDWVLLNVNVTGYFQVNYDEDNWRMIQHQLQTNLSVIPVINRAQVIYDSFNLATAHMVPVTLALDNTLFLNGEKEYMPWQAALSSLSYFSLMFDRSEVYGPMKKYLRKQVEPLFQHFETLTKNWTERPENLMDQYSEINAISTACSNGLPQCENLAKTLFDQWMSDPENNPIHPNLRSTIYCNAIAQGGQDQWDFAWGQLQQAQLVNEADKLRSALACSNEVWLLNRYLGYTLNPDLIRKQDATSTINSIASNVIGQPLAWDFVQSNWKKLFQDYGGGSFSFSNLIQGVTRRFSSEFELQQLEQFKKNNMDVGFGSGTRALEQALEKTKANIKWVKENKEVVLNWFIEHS
The experiment in a line: Effect of chemical reagents (inhibitors, metallic cations) on LAP activity with Leu-AMC. To be noted: Leu-MCA substrate. The format is biochemical. As for the experimental part:
as §1

For a further experiment, the system named is gliadin 33 mer. The experiment in a line: Digestion of gliadin 33 mer (RP-HPLC, ESI-MS). The format is biochemical, wheat.

Chain of ruLAP1 (Q5QHG5 19-373): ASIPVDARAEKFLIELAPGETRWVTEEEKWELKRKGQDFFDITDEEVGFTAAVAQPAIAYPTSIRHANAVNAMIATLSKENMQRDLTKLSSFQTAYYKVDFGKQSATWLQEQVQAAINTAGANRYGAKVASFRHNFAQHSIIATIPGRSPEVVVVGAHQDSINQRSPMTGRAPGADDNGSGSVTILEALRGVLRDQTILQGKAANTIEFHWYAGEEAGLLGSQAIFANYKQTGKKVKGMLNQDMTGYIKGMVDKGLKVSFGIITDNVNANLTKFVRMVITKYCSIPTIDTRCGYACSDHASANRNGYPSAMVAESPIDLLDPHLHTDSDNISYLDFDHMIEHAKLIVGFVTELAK
Chain of ruLAP2 (Q5QHG6 22-495): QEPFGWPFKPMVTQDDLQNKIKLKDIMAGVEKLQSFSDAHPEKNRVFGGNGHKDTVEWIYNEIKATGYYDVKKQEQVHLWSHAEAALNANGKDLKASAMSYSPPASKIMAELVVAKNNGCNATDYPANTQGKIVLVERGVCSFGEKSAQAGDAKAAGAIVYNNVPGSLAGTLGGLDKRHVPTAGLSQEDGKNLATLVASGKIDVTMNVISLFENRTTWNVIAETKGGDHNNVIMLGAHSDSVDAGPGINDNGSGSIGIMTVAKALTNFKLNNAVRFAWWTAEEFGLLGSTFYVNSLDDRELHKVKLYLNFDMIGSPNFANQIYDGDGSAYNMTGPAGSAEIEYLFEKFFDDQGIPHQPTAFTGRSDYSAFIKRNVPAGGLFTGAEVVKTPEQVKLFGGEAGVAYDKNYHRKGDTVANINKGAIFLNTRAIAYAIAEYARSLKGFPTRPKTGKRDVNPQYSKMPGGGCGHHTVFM
Chain of fuLAP1 (Q5VJG6 15-388, looked up, natural form): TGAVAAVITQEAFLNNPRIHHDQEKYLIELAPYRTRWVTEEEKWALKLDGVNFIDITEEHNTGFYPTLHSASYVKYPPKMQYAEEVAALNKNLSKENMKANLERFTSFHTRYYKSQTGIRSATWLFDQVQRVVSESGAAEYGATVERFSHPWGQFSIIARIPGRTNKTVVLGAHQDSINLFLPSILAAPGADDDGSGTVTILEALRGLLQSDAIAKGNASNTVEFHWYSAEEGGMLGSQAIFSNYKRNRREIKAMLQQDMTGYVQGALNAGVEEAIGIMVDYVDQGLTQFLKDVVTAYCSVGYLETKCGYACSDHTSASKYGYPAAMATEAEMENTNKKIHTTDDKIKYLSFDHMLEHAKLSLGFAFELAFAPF

As for `[Cl-].[Cl-].[Co+2]` [Co^++, CoCl2], the “ruLAP1 hydrolytic activity, percentage of control without any cation” value at ruLAP1 (cation salt 0.5 mM) was found to be 210.2%; at ruLAP1 (cation salt 1 mM), 202.1%. The “fuLAP1 hydrolytic activity, percentage of control without any cation” value worked out at 104.3% on fuLAP1 (cation salt 0.5 mM) and 96.5% at fuLAP1 (cation salt 1 mM). For the same molecule, the “increase of the activity of the LAPs” value in experiment [1] (concentration up to 1 mM, with the exception of fuLAP1) is on record as 200% to 900%. The “effect of divalent cation on ruLAP2 activity” value on ruLAP2 (Leu-AMC substrate) is on record as “highly activated”. Also, the “ruLAP2 hydrolytic activity, percentage of control without any cation” value at ruLAP2 (cation salt 0.5 mM) was 591.2%; on ruLAP2 (cation salt 1 mM), 789.7%. In addition, the “effect of divalent cation on fuLAP2 activity” value in the experiment on fuLAP2 (Leu-AMC substrate) was “highly activated”. Moreover, the “fuLAP2 hydrolytic activity, percentage of control without any cation” value in the experiment on fuLAP2 (cation salt 0.5 mM) was determined as 378.0%; with fuLAP2 (cation salt 1 mM), 662.7%. Further, the figures for the “pkLAP hydrolytic activity, percentage of control without any cation” value in experiment [2] (cation salt 0.5 mM) and in experiment [2] (cation salt 1 mM) were 876.1% and 899.8%, respectively.
Consider `CC(=O)N[C@@H](CC(C)C)C(=O)N[C@@H](CC(C)C)C(=O)N[C@H](C=O)CCCNC(=N)N` [Leupeptin, leupeptin], for which the “effect of inhibitor on all the LAPs tested” value in experiment [1] is “no clear inhibitory effects”. In addition, the “fuLAP2 hydrolytic activity, percentage of control without inhibitor” value in the experiment with fuLAP2 (inhibitor 100 μM) turned out to be 61%.
For the molecule `Cc1ccc(S(=O)(=O)N[C@@H](CCCCN)C(=O)CCl)cc1` [TLCK], the “ruLAP1 hydrolytic activity, percentage of control without inhibitor” value at ruLAP1 (inhibitor 20 μM) is listed as 68%. Besides, the “fuLAP1 hydrolytic activity, percentage of control without inhibitor” value at fuLAP1 (inhibitor 20 μM) worked out at 80%. Also, in experiment [1], the “effect of inhibitor on all the LAPs tested” value was “no clear inhibitory effects”. Further, the “ruLAP2 hydrolytic activity, percentage of control without inhibitor” value on ruLAP2 (inhibitor 20 μM) stood at 96%. The “fuLAP2 hydrolytic activity, percentage of control without inhibitor” value in the experiment on fuLAP2 (inhibitor 20 μM) is listed as 120%. Further, the “pkLAP hydrolytic activity, percentage of control without inhibitor” value in experiment [2] (inhibitor 20 μM) worked out at 113%.
As for `Cc1ccc(S(=O)(=O)N[C@@H](Cc2ccccc2)C(=O)CCl)cc1` [TPCK], on ruLAP1 (inhibitor 20 μM), the “ruLAP1 hydrolytic activity, percentage of control without inhibitor” value is given as 68%. In addition, the “fuLAP1 hydrolytic activity, percentage of control without inhibitor” value on fuLAP1 (inhibitor 20 μM) is listed as 95%. Besides, the “effect of inhibitor on all the LAPs tested” value in experiment [1] was “no clear inhibitory effects”. Besides, at ruLAP2 (inhibitor 20 μM), the “ruLAP2 hydrolytic activity, percentage of control without inhibitor” value worked out at 79%. Also, the “fuLAP2 hydrolytic activity, percentage of control without inhibitor” value with fuLAP2 (inhibitor 20 μM) stood at 87%. In experiment [2] (inhibitor 20 μM), the “pkLAP hydrolytic activity, percentage of control without inhibitor” value is given as 108%.
For `CC(C)C[C@@H](N)[C@H](O)C(=O)N[C@H](C(=O)N[C@H](C(=O)N[C@@H](CC(=O)O)C(=O)O)C(C)C)C(C)C` [amastatin], the “effect of inhibitor on all the LAPs tested” value in experiment [1] is given as “strongly or totally inhibited”. Further, the “fuLAP2 hydrolytic activity, percentage of control without inhibitor” value in the experiment with fuLAP2 (inhibitor 500 μM) was found to be 0%.
For `N=C(N)c1ccccc1` [benzamidine], the “effect of inhibitor on all the LAPs tested” value in experiment [1] is “no clear inhibitory effects”. In the experiment on fuLAP2 (inhibitor 40 μM), the “fuLAP2 hydrolytic activity, percentage of control without inhibitor” value is 91%.
Consider `O=C(O)c1cc[c]([Hg][Cl])cc1` [p-chloromercuribenzoate, p-chloromercuribenzoic acid], for which the “ruLAP1 hydrolytic activity, percentage of control without inhibitor” value on ruLAP1 (inhibitor 500 μM) was found to be 32%. The “fuLAP1 hydrolytic activity, percentage of control without inhibitor” value at fuLAP1 (inhibitor 500 μM) is given as 90%. The “effect of inhibitor on ruLAP2 activity” value at ruLAP2 (Leu-AMC 5 mM, inhibitor concentrations) is recorded as “blunted the activity”. The “ruLAP2 hydrolytic activity, percentage of control without inhibitor” value on ruLAP2 (inhibitor 500 μM) is 21%. For the same molecule, the “fuLAP2 hydrolytic activity, percentage of control without inhibitor” value with fuLAP2 (inhibitor 500 μM) stood at 96%. Further, in experiment [2] (inhibitor 500 μM), the “pkLAP hydrolytic activity, percentage of control without inhibitor” value is reported as 59%.
Regarding Chymotrypsin [reference compound], the “digestion of the peptide with other enzymes” value in the experiment with gliadin 33 mer (20 h, combinations with both enzymes at E/S (w:w) 1:50) is “not able to breakdown the peptide”.

B1: Cytosolic porcine kidney aminopeptidase: cytosolic leucine aminopeptidase from porcine kidney, Sigma (protein, UniProt P28839 1-519, looked up)
Cytosol aminopeptidase: MFLLPLPAAARVAVRQLSVRRFWGPGPDAANMTKGLVLGIYSKEKEDDAPQFTSAGENFDKLVSGKLREILNISGPPLKAGKTRTFYGLHEDFSSVVVVGLGKKGAGVDDQENWHEGKENIRAAVAAGCRQIQDLEIPSVEVDPCGDAQAAAEGAVLGLYEYDELKQKKKVVVSAKLHGSGDQEAWQRGVLFASGQNLARHLMETPANEMTPTRFAEVIEKNLKSASSKTDVHIRPKSWIEEQEMGSFLSVAKGSEEPPVFLEIHYKGSPDASDPPLVFVGKGITFDSGGISIKASANMDLMRADMGGAATICSTIVSAAKLDLPINLVGLAPLCENMPSGKANKPGDVVRAKNGKTIQVDNTDAEGRLILADALCYAHTFNPKVIINAATLTGAMDIALGSGATGVFTNSSWLWNKLFEASIETGDRVWRMPLFEHYTKQIVDCQLADVNNIGKYRSAGACTAAAFLKEFVTHPKWAHLDIAGVMTNKDEVPYLRKGMAGRPTRTLIEFLLRFSQDSA
As to B1, the “digestion of the 33 mer” value with gliadin 33 mer (37° C., 1 mM CoCl2, pH7.2) is “totally inactive”.
